Legend:
[1] = molar heat capacity at constant pressure; xn = mol fraction of the nth substance listed; details: 101 kPa, Liquid, DSC
[2] = xn = mol fraction of the nth substance listed; details: 101 kPa, Liquid; for viscosity: Falling or rolling sphere viscometry; for speed of sound: Sing-around technique in a fixed-path interferometer; for mass density: Vibrating tube method

CC12CCC(CC1)C(C)(C)O2 [1,3,3-trimethyl-2-oxabicyclo[2.2.2]octane] + CCCCCC
Details | mass density, [2] [kg/m3] | molar heat capacity at constant pressure, [1] [J/K/mol] | speed of sound, [2] [m/s] | viscosity, [2] [mPa·s]
278.15 K, x1 = 0.1043 | 708.22 | 194.63 | 1188.8 | 0.47
278.15 K, x1 = 0.2069 | 740.59 | 200.97 | 1208.4 | 0.57
278.15 K, x1 = 0.2965 | 767.3 | 206.77 | 1225.8 | 0.68
278.15 K, x1 = 0.4005 | 796.7 | 213.53 | 1246.1 | 0.83
278.15 K, x1 = 0.4991 | 823.02 | 220.18 | 1265.3 | 1.03
278.15 K, x1 = 0.5999 | 848.56 | 227.2 | 1284.8 | 1.28
278.15 K, x1 = 0.6995 | 872.46 | 234.25 | 1304 | 1.66
278.15 K, x1 = 0.8005 | 895.28 | 241.41 | 1322.8 | 2.19
278.15 K, x1 = 0.8985 | 916.39 | 248.64 | 1341 | 2.93
278.15 K, x1 = 1 | 937.25 | 256.14 | 1359.6 | 4.21
298.15 K, x1 = 0.1043 | 690.43 | 201.78 | 1099.9 | 0.39
298.15 K, x1 = 0.2069 | 722.9 | 208.67 | 1121.2 | 0.46
298.15 K, x1 = 0.2965 | 749.7 | 214.95 | 1139.8 | 0.53
298.15 K, x1 = 0.4005 | 779.19 | 222.29 | 1161.4 | 0.64
298.15 K, x1 = 0.4991 | 805.59 | 229.41 | 1181.5 | 0.77
298.15 K, x1 = 0.5999 | 831.19 | 236.9 | 1201.8 | 0.93
298.15 K, x1 = 0.6995 | 855.13 | 244.43 | 1221.6 | 1.16
298.15 K, x1 = 0.8005 | 878 | 252.03 | 1241.3 | 1.48
298.15 K, x1 = 0.8985 | 899.14 | 259.73 | 1260 | 1.9
298.15 K, x1 = 1 | 920.04 | 267.69 | 1278.4 | 2.6
318.15 K, x1 = 0.1043 | 672.12 | 209.13 | 1012.6 | 0.34
318.15 K, x1 = 0.2069 | 704.78 | 216.45 | 1035.9 | 0.38
318.15 K, x1 = 0.2965 | 731.74 | 223.08 | 1055.9 | 0.43
318.15 K, x1 = 0.4005 | 761.37 | 230.81 | 1078.8 | 0.51
318.15 K, x1 = 0.4991 | 787.91 | 238.36 | 1100.2 | 0.6
318.15 K, x1 = 0.5999 | 813.62 | 246.29 | 1121.5 | 0.71
318.15 K, x1 = 0.6995 | 837.67 | 254.22 | 1142.2 | 0.86
318.15 K, x1 = 0.8005 | 860.63 | 262.24 | 1162.8 | 1.06
318.15 K, x1 = 0.8985 | 881.86 | 270.35 | 1182.4 | 1.32
318.15 K, x1 = 1 | 902.84 | 278.65 | 1201 | 1.73
338.15 K, x1 = 0.1043 | 653.14 | 216.81 | 926.7 | 0.3
338.15 K, x1 = 0.2069 | 685.99 | 224.63 | 952.68 | 0.34
338.15 K, x1 = 0.2965 | 713.31 | 231.59 | 974.13 | 0.38
338.15 K, x1 = 0.4005 | 743.17 | 239.8 | 998.9 | 0.43
338.15 K, x1 = 0.4991 | 769.91 | 247.71 | 1021.5 | 0.49
338.15 K, x1 = 0.5999 | 795.8 | 256.09 | 1044.1 | 0.57
338.15 K, x1 = 0.6995 | 819.99 | 264.46 | 1065.7 | 0.68
338.15 K, x1 = 0.8005 | 843.1 | 272.99 | 1087 | 0.82
338.15 K, x1 = 0.8985 | 864.46 | 281.61 | 1107.2 | 0.99
338.15 K, x1 = 1 | 885.57 | 290.33 | 1126.7 | 1.27
